12 compounds from patent US20170304306A1, “SELECTIVE NaV1.7 INHIBITORS FOR THE TREATMENT OF DIABETES” (CHROMOCELL CORPORATION, priority 2014, published 2017) can be followed below.

One test addresses T1, NaV1.5 (Homo sapiens, UniProt Q14524).
T1 construct: expressed in transfected cells; host or cells: HEK293
The test is described as follows: Patchliner electrophysiological in-vitro assay, NaV1.5. The settings on record: Patchliner patch clamp, HEK293 cells. The class given is cell-based. The protocol:
(§1) In vitro assays were performed in recombinant cell line that stably express a heterotrimeric protein of interest from an introduced nucleic acid encoding the alpha subunit (hNav1.7, SCN9A), the beta subunit (SCNB1) and the beta subunit (SCNB2). The cell line was engineered using Human Embryonic Kidney 293 cells (HEK293) as host background. Additional cell lines stably expressing recombinant human NaVs (e.g., NaV1.1, NaV1.2, NaV1.3, NaV1.4, NaV1.5, NaV1.6, NaV1.7 or NaV1.8) alpha subunit alone or in combination with various beta subunits in Chinese Hamster Ovary (CHO) or HEK293 cells as a host background can also be used in in vitro assays.
The recording of sodium current from stable HEK293 cell lines expressing NaV1.7 or NaV1.5 or CHO cell lines expressing NaV1.1, NaV1.2, NaV1.3, NaV1.4, NaV1.6 or NaV1.8 was done on a Patchliner® instrument, Nanion Technologies. The Patchliner® is a fully automated bench-top patch clamp platform and can record simultaneously from up to eight single cells with GΩ seals.
For patch-clamp experiments, cells were grown under standard culturing conditions in Dulbecco's Modified Eagles medium supplemented with 10% fetal bovine serum, glutamine and HEPES. Cells were harvested and kept in suspension for up to 4 hours with no significant change in quality or ability to patch. Whole cell patch clamp recordings were conducted according to Nanion's standard procedure for the Patchliner®. Experiments were conducted at room temperature.
Voltage protocols were designed to establish: 1) peak current amplitude (Imax), 2) test potential (Vmax) and 3) half-inactivation potential (V1/2) for each of the eight individual cells. To determine V1/2, a standard steady-state inactivation protocol was executed using a series of fifteen 500 ms depolarizing pre-pulses in 10 mV increments (starting at −130 mV) and immediately followed by a 10 ms test pulse to Vmax. To estimate test compound affinity to the inactivated state of sodium channel (Ki), the holding potential for each cell was set automatically to the V1/2 calculated from a steady-state inactivation data. The current was activated with the following voltage protocol: holding at V1/2 for 2-5 seconds, return to the −120 mV for 5-10 ms to relieve fast inactivation, stepping to test potential (Vmax) for 10-20 ms. This voltage protocol was repeated every 10 seconds to establish the baseline with 2-3 buffer additions followed by the test compound addition. The dose-dependent inhibition was analyzed using Nanion's Data Analysis Package.
For orientation: The patch-clamp technique gives a direct electrical read-out from membranes.

The test system of test [1] is streptozotocin-induced diabetic rats. Kind of test: Anti-diabetic effect in rat streptozotocin-induced model for diabetes. The class given is in vivo, Sprague-Dawley rats. The settings on record: STZ diabetic rats. On the procedure: 250-350 g male Sprague-Dawley rats from appropriate animal resources were used. Type I diabetes was induced by a single injection, (intraperitoneally, intravenously or intramuscularly) of 50-100 mg/kg of streptozotocin (STZ, Sigma Chemicals, St. Louis, Mo. or VWR) freshly dissolved in sodium citrate (0.01 M, pH 4.5). Sham animals were given either saline or same vehicle injection. Following a wait time of about two days, inducement of diabetes was confirmed in STZ-injected rats by measuring the plasma glucose concentrations in blood samples from the tail vein after a fast of 6 hours. The glucose level was assayed using a mini glucose monitor (kit for AlphaTRAK 2 meter, available from Abbott Laboratories). Screening for hyperglycemia in STZ-injected animals was done, with only animals with a final blood glucose level ≧300 mg/dl being selected for the study. Glucose levels in the sham animals remained normal. Other parameters (water intake, food intake, and bodyweight) were monitored before the treatment with a test compound and after the cessation of the treatment.
The baseline glucose levels, daily food and water intake and behavioral tests (von Frey, paw pressure and plantar tests) were measured for each animal once weekly for 28 weeks, and once every 2-4 weeks for an additional 28-30 weeks. At a selected week (started from week 6) for a compound test, diabetic rats were divided into two test groups: a vehicle control group and a test compound treated group (n=10 each group). A sham group (saline only without STZ i.p. injection, n=10) was added as a normal, non-diabetic control group. To minimize animal stress associated with repeated daily handling, the compound treated diabetic group of animals received the test compound (compound 49) at a daily dose of 60 mg/kg in their drinking water containing 2% PEG600 and 1% glycofurol (the test compound concentration in the drinking water was based on the individual animal's average daily water consumption as determined the pre-dosing period, which averaged 0.1-0.11 mg/ml). The vehicle control group received drinking water containing 2% PEG600 and 1% glycofurol without the test compound. The treatment continued for 9 days. On day 10 drinking water with test compound or vehicle (2% PEG600 and 1% glycofurol) was replaced with plain drinking water in all groups. The monitoring of glucose levels, food and water intake as well as behavior tests continued for additional 28-30 weeks.

In the next test the target is T2, NaV1.8 (Homo sapiens, UniProt Q9Y5Y9).
T2 construct: expressed in transfected cells; host or cells: CHO
Kind of test: Patchliner electrophysiological in-vitro assay, NaV1.8. The class given is cell-based. The conditions noted are these: Patchliner patch clamp, CHO cells. The protocol:
as §1
(§2) The recording of sodium current from stable HEK293 cell lines expressing NaV1.7 or NaV1.5 or CHO cell lines expressing NaV1.1, NaV1.2, NaV1.3, NaV1.4, NaV1.6 or NaV1.8 was done on a Patchliner® instrument, Nanion Technologies. […]
(§3) Voltage protocols were designed to establish: 1) peak current amplitude (Imax), 2) test potential (Vmax) and 3) half-inactivation potential (V1/2) for each of the eight individual cells. […] To estimate test compound affinity to the inactivated state of sodium channel (Ki), the holding potential for each cell was set automatically to the V1/2 calculated from a steady-state inactivation data. […] The dose-dependent inhibition was analyzed using Nanion's Data Analysis Package.

Test [2] concerns the target T3, NaV1.3 (Homo sapiens, UniProt Q9NY46). Kind of test: Assay similar to Patchliner assay using CHO or HEK293 cell lines expressing NaV1.3. The class given is cell-based. On the set-up: expressed in transfected cells; host or cells: CHO or HEK293.
Another test concerns the target T4, NaV1.1 (Homo sapiens, UniProt P35498).
T4 construct: expressed in transfected cells; host or cells: CHO
The test is described as follows: Patchliner electrophysiological in-vitro assay, NaV1.1. The class given is cell-based. The settings on record: Patchliner patch clamp, CHO cells. On the procedure:
as §1, §2, §3

For another test, the target named is T5, NaV1.4 (Homo sapiens, UniProt P35499).
T5 construct: expressed in transfected cells; host or cells: CHO
The test is described as follows: Patchliner electrophysiological in-vitro assay, NaV1.4. The class given is cell-based. The settings on record: Patchliner patch clamp, CHO cells. On the procedure: as §1, §2, §3

The target in another test is T6, NaV1.7 (Homo sapiens, UniProt Q15858).
T6 construct: expressed in transfected cells; host or cells: HEK293
The test is described as follows: Patchliner electrophysiological in-vitro assay, NaV1.7. The conditions noted are these: Patchliner patch clamp, HEK293 cells, holding at V1/2. The class given is cell-based. The protocol:
as §1, §2, §3

Another test concerns the target T7, hNaV1.7 (Homo sapiens, UniProt Q15858).
T7 construct: expressed in transfected cells; host or cells: HEK293
Kind of test: FDSS membrane potential in-vitro assay. The class given is cell-based. The conditions noted are these: HEK293 cells expressing hNaV1.7 α, β1 and β2, veratridine and scorpion venom stimulation, read-out: NaV1.7 IC50.

Test [3] deals with T3, NaV1.3. The test is described as follows: Patchliner electrophysiological in-vitro assay, NaV1.3. The class given is cell-based. The settings on record: Patchliner patch clamp, CHO cells; read-out: NaV 1.3 IC50. Further details: expressed in transfected cells; host or cells: CHO. On the procedure: as §1, §2, §3
Where [4] appears, read: 60 mg/kg/day in drinking water for 9 days, after treatment stopped, continues through week 52.

T1 sequence (Q14524 whole entry): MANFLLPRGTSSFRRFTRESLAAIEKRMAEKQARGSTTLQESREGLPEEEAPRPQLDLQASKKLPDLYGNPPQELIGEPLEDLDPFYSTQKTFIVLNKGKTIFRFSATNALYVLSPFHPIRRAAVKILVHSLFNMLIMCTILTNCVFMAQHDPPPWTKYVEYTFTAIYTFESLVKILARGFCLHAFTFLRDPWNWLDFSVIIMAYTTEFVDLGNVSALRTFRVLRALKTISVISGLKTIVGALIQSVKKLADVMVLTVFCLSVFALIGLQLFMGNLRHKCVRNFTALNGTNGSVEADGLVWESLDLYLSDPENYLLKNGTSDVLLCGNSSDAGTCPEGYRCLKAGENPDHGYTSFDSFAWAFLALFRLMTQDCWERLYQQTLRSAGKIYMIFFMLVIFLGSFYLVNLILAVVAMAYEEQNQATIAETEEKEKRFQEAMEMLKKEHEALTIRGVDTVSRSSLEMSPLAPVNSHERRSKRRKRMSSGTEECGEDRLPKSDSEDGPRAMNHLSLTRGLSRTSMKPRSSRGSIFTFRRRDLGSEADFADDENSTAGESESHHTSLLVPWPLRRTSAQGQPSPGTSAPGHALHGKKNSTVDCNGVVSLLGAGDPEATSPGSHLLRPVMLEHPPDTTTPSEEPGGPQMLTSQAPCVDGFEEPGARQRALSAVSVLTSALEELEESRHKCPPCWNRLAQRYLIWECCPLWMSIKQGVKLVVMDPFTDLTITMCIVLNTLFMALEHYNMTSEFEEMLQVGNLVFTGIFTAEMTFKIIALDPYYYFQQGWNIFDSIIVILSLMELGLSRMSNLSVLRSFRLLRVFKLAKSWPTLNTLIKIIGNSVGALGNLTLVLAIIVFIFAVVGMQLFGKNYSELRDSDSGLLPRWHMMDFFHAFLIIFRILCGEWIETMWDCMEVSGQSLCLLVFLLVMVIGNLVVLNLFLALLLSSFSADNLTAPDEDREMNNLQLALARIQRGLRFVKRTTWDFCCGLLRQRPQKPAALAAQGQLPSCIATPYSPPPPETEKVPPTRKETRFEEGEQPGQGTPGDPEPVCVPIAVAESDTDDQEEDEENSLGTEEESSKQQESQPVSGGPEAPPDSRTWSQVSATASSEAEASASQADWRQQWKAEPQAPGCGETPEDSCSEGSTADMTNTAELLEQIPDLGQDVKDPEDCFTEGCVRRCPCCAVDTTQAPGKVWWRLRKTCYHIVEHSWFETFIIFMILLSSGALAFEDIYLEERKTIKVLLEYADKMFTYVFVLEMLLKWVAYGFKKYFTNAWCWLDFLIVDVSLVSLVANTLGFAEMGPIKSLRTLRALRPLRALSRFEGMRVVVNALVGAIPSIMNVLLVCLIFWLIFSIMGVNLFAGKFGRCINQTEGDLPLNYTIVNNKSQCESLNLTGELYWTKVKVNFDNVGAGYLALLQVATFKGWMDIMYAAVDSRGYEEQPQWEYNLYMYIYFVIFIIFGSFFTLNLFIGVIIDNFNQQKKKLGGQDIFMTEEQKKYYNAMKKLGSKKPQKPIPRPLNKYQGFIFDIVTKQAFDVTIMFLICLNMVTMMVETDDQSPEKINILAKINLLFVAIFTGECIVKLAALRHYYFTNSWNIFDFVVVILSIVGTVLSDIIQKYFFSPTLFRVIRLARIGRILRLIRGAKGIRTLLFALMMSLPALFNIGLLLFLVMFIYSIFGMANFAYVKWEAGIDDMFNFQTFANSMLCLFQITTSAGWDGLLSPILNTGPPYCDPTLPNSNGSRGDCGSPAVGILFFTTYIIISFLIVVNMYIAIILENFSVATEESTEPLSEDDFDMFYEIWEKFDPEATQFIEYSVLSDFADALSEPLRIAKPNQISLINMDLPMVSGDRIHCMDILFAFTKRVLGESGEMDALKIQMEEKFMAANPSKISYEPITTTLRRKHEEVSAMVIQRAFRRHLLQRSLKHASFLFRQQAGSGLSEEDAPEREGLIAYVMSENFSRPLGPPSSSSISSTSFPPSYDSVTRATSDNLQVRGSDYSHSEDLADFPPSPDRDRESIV
T3 sequence (Q9NY46 whole entry): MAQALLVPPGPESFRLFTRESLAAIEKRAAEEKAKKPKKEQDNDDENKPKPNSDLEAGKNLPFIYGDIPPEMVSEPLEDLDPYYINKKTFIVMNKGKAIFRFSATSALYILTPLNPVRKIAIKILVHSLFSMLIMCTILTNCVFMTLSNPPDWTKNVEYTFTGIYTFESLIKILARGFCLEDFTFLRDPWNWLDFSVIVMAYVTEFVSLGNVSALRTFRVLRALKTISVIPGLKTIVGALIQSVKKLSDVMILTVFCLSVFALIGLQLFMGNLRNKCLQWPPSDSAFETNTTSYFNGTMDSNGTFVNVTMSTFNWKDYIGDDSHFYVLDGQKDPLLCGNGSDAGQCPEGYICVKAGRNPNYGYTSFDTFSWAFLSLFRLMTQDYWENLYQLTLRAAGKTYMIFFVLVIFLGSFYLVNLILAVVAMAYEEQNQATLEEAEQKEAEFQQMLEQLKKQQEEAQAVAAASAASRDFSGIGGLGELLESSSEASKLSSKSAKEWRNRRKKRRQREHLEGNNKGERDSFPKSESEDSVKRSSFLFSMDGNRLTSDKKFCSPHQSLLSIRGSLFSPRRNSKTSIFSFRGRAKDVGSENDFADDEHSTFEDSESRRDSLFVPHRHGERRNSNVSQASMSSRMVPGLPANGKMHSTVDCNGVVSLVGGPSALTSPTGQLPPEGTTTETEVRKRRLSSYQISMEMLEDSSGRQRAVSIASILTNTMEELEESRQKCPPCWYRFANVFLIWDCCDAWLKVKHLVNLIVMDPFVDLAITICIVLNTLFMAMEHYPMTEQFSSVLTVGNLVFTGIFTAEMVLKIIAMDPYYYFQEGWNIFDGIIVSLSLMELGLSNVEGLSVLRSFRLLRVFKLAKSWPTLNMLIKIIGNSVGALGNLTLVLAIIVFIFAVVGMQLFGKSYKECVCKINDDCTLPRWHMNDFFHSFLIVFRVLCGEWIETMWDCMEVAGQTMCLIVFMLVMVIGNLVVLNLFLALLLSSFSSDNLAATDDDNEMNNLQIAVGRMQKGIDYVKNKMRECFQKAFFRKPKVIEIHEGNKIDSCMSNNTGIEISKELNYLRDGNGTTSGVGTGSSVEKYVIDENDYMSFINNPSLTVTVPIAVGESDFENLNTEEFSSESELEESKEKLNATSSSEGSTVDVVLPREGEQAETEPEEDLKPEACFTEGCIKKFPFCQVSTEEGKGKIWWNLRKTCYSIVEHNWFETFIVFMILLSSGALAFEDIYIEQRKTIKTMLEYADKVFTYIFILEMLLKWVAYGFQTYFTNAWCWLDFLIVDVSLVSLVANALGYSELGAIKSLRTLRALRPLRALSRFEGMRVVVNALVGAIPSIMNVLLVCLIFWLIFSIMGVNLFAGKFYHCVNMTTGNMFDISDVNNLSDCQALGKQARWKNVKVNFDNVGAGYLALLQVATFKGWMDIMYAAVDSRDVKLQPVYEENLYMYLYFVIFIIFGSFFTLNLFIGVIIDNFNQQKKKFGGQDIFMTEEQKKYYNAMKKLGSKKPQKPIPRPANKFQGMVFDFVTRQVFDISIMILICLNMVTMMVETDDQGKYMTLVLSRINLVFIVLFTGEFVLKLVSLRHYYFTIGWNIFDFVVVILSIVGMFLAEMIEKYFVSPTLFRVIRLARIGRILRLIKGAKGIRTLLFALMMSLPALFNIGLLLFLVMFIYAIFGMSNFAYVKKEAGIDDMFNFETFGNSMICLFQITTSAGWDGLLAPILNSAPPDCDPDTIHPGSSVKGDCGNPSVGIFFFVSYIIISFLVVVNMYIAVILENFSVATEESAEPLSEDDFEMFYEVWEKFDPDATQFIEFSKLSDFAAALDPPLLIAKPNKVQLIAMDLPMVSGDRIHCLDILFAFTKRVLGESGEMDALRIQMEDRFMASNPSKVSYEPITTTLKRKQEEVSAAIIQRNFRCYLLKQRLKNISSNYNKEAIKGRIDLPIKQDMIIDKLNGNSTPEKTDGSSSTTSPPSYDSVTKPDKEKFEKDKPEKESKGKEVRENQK

For the compound `C=CCN(CCCc1cc(Cl)ccc1Oc1cc(F)c(S(=O)(=O)Nc2nccs2)cc1Cl)CC(=O)O` [Compound 62, 2-(allyl(3-(5-chloro-2-(2-chloro-5-fluoro-4-(N-(thiazol-2-yl)sulfamoyl)phenoxy)phenyl)propyl)amino)acetic acid], the IC50 at NaV1.5 is greater than 10 µM.
With `CN(CCCc1cc(Cl)ccc1Oc1cc(F)c(S(=O)(=O)Nc2cscn2)cc1Cl)CC(=O)O` [Compound 47, 2-((3-(5-chloro-2-(2-chloro-5-fluoro-4-(N-(thiazol-4-yl)sulfamoyl)phenoxy)phenyl)propyl)(methyl)amino)acetic acid], the half-maximal inhibitory concentration (IC50) on NaV1.5 is greater than 10 µM.
On to `NC(=O)CNCCCc1cc(Cl)ccc1Oc1cc(F)c(S(=O)(=O)Nc2cscn2)cc1Cl` [Compound 49, 2-((3-(5-chloro-2-(2-chloro-5-fluoro-4-(N-(thiazol-4-yl)sulfamoyl)phenoxy)phenyl)propyl)amino)acetamide], for which, in test [1] (60 mg/kg/day for 9 days, after treatment stopped on day 9), the “general appearance and/or health” value was “improvements in general appearance and/or health”. Besides, the “food intake compared to the vehicle control group” value in test [1] (setting [4]) was “significantly reduced”. In addition, in test [1] (setting [4]), the “glucose level compared to the vehicle control group” value is “significantly reduced”. In addition, the “water intake compared to the vehicle control group” value in [1] (setting [4]) was “significantly reduced”. Further, the IC50 is greater than 10 µM on NaV1.8, greater than 10 µM on NaV1.3 [2], greater than 10 µM at NaV1.1 and greater than 3 µM at NaV1.4.
Take `CS(=O)(=O)CCNCCCc1cc(Cl)ccc1Oc1cc(F)c(S(=O)(=O)Nc2nccs2)cc1Cl` [Compound 59, 5-chloro-4-(4-chloro-2-(3-((2-(methylsulfonyl)ethyl)amino)propyl)phenoxy)-2-fluoro-N-(thiazol-2-yl)benzenesulfonamide]: the IC50 on NaV1.5 is greater than 10 µM.
On the same count and under the same terms, with `NC(=O)CNCCCc1ccccc1Oc1cc(F)c(S(=O)(=O)Nc2cscn2)cc1Cl` [Compound 60, 2-((3-(2-(2-chloro-5-fluoro-4-(N-(thiazol-4-yl)sulfamoyl)phenoxy)phenyl)propyl)amino)acetamide] the figure was greater than 10 µM.
Regarding `NC(=O)CNCCCc1cc(Cl)ccc1Oc1cc(F)c(S(=O)(=O)Nc2nccs2)cc1Cl` [Compound 63, 2-((3-(5-chloro-2-(2-chloro-5-fluoro-4-(N-(thiazol-2-yl)sulfamoyl)phenoxy)phenyl)propyl)amino)acetamide], on NaV1.5, the IC50 was greater than 10 µM.
On the same count and under the same terms, with `C#CCN(CCCc1cc(Cl)ccc1Oc1cc(F)c(S(=O)(=O)Nc2nccs2)cc1Cl)CCC(=O)O` [Compound 66, 3-((3-(5-chloro-2-(2-chloro-5-fluoro-4-(N-(thiazol-2-yl)sulfamoyl)phenoxy)phenyl)propyl)(prop-2-yn-1-yl)amino)propanoic acid] the figure was greater than 10 µM; with `C#CCN(CCCc1cc(Cl)ccc1Oc1cc(F)c(S(=O)(=O)Nc2cscn2)cc1Cl)CC(=O)O` [Compound 61, 2-((3-(5-chloro-2-(2-chloro-5-fluoro-4-(N-(thiazol-4-yl)sulfamoyl)phenoxy)phenyl)propyl)(prop-2-yn-1-yl)amino)acetic acid], greater than 10 µM.
For `C#CCN(CCCc1cc(Cl)ccc1Oc1cc(F)c(S(=O)(=O)Nc2nccs2)cc1Cl)CC(=O)O` [Compound 54, 2-((3-(5-chloro-2-(2-chloro-5-fluoro-4-(N-(thiazol-2-yl)sulfamoyl)phenoxy)phenyl)propyl)(prop-2-yn-1-yl)amino)acetic acid], the values for the IC50 at NaV1.7, on hNaV1.7 and on NaV1.5 were less than 0.1 µM, less than 0.1 µM and greater than 10 µM, respectively.
Take `CCCN(CCCc1cc(Cl)ccc1Oc1cc(F)c(S(=O)(=O)Nc2nccs2)cc1Cl)CC(=O)O` [Compound 65, 2-((3-(5-chloro-2-(2-chloro-5-fluoro-4-(N-(thiazol-2-yl)sulfamoyl)phenoxy)phenyl)propyl)(propyl)amino)acetic acid]: on NaV1.5, the IC50 was greater than 10 µM.
Turning to `O=C(O)CCNC(=O)c1cc(-c2cc(Cl)ccc2Oc2cc(F)c(S(=O)(=O)Nc3ncns3)cc2Cl)ccn1` [Compound 1, 3-(4-(2-(4-(N-(1,2,4-thiadiazol-5-yl)sulfamoyl)-2-chloro-5-fluorophenoxy)-5-chlorophenyl)picolinamido)propanoic acid], the IC50 was greater than 10 µM at NaV1.8, greater than 10 µM on NaV1.1, greater than 10 µM on NaV1.3 [3] and greater than 3 µM on NaV1.4.
As to `O=C(O)CCNCCCc1cc(Cl)ccc1Oc1cc(F)c(S(=O)(=O)Nc2nccs2)cc1F` [Compound 43, 3-((3-(5-chloro-2-(2,5-difluoro-4-(N-(thiazol-2-yl)sulfamoyl)phenoxy)phenyl)propyl)amino)propanoic acid], at NaV1.5, the IC50 was greater than 10 µM.

As usually defined, the IC50 is the midpoint of a concentration-inhibition curve.
